This assay concerns the target T1, IRAK4 (Homo sapiens, UniProt Q9NWZ3).
T1 construct: knocking-in a HiBiT fusion tag into the C-terminal of the IRAK4 gene in 293T cells; host or cells: 293T cells, knock-in of HiBiT at the endogenous IRAK4 locus
T1 sequence (Q9NWZ3 1-460): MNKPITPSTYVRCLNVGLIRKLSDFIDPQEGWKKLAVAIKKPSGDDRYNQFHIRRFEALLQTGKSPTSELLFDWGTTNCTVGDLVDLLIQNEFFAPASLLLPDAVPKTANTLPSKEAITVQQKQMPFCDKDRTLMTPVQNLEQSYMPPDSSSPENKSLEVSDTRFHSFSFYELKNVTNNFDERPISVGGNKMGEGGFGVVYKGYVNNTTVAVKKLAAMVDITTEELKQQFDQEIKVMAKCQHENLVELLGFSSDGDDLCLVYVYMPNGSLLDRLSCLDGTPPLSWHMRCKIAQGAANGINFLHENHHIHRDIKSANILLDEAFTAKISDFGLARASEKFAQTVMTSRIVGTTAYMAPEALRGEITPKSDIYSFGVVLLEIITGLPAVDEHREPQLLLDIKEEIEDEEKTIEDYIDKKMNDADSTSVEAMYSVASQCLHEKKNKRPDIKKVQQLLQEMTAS
Nature of the assay: IRAK4 degradation assay using the HiBiT Method. In kind it is cell-based. The following applies: 293T cells expressing HiBiT-tagged IRAK4; 6-hour incubation; Nano-Glo HiBiT Lytic Assay luminescence. In outline: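 HEK293T cells with HiBiT knocked into the IRAK4 C-terminus, 10,000 cells per well, treated with an 11-point half-log series […] in duplicate for 6 hours at 37° C., 5% CO2. Remaining IRAK4 quantified by Nano-Glo HiBiT lytic luminescence against DMSO controls.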
One may read the DC50 as the concentration giving 50% degradation. Lower therefore signals degradation at low concentration. `CC(C)Oc1cc2nc(C3CCN(CC(=O)N4CCN(CCCc5ccc(NC6CCC(=O)NC6=O)cc5)CC4)CC3)cn2cc1NC(=O)c1cccc(C(F)(F)F)n1` (stereo not shown) [Example 16, N-[2-[1-[2-[4-[3-[4-[(2,6-dioxo-3-piperidyl)amino]phenyl]propyl]piperazin-1-yl]-2-oxo-ethyl]-4-piperidyl]-7-isopropoxy-imidazo[1,2-a]pyridin-6-yl]-6-(trifluoromethyl) pyridine-2-carboxamide] returned a half-maximal degradation concentration (DC50) of 100 to 500 nM. For `CC(C)Oc1cc2nc(C3CCN(C(=O)CN4CCC(c5cccc(NC6CCC(=O)NC6=O)c5)CC4)CC3)cn2cc1NC(=O)c1cccc(C(F)(F)F)n1` (stereo not shown) [Example 3, N-[2-[1-[2-[4-[3-[(2,6-dioxo-3-piperidyl)amino]phenyl]-1-piperidyl]acetyl]-4-piperidyl]-7-isopropoxy-imidazo[1,2-a]pyridin-6-yl]-6-(trifluoromethyl)pyridine-2-carboxamide] the value was 100 to 500 nM; for `CC(C)Oc1cc2nn(C3CCN(C(=O)CN4CCC(c5ccc(NC6CCC(=O)NC6=O)cc5F)CC4)CC3)cc2cc1NC(=O)c1cccc(C(F)(F)F)n1` (stereo not shown) [Example 52, N-(2-(1-(2-(4-(4-((2,6-dioxopiperidin-3-yl)amino)-2-fluorophenyl)piperidin-1-yl)acetyl)piperidin-4-yl)-6-isopropoxy-2H-indazol-5-yl)-6-(trifluoromethyl)picolinamide], 10 to 100 nM; for `CC(C)Oc1cc2nc(C3CCN(CC(=O)N4CCC(c5ccc(NC6CCC(=O)NC6=O)cc5F)CC4)CC3)cn2cc1NC(=O)c1cccc(C(F)(F)F)n1` (stereo not shown) [Example 24, N-[2-[1-[2-[4-[4-[(2,6-dioxo-3-piperidyl)amino]-2-fluoro-phenyl]-1-piperidyl]-2-oxo-ethyl]-4-piperidyl]-7-isopropoxy-imidazo[1,2-a]pyridin-6-yl]-6-(trifluoromethyl)pyridine-2-carboxamide], 10 to 100 nM.

`CC(C)Oc1cc2nc(C3CCN(C(=O)CN4CCN(c5ccc(OC6CCC(=O)NC6=O)cc5)CC4)CC3)cn2cc1NC(=O)c1cccc(C(F)(F)F)n1` (stereo not shown) [Example 6, N-[2-[1-[2-[4-[4-[(2,6-dioxo-3-piperidyl)oxy]phenyl]piperazin-1-yl]acetyl]-4-piperidyl]-7-isopropoxy-imidazo[1,2-a]pyridin-6-yl]-6-(trifluoromethyl)pyridine-2-carboxamide] registered a half-maximal degradation concentration (DC50) of 100 to 500 nM. For `CC(C)Oc1cc2nc(C3CCN(CC(=O)N4CCC(c5ccc(NC6CCC(=O)NC6=O)cc5)CC4)CC3)cn2cc1NC(=O)c1ccncn1` (stereo not shown) [Example 53, N-[2-[1-[2-[4-[4-[(2,6-dioxo-3-piperidyl)amino]phenyl]-1-piperidyl]-2-oxo-ethyl]-4-piperidyl]-7-isopropoxy-imidazo[1,2-a]pyridin-6-yl]pyrimidine-4-carboxamide] the value was 100 to 500 nM; for `CC(C)Oc1cc2nc(C3CCN(CC(=O)N4CCC(c5ccc(NC6CCC(=O)NC6=O)cc5)CC4)CC3)cn2cc1NC(=O)c1cccc(C(F)(F)F)c1` (stereo not shown) [Example 54, N-[2-[1-[2-[4-[4-[(2,6-dioxo-3-piperidyl)amino]phenyl]-1-piperidyl]-2-oxo-ethyl]-4-piperidyl]-7-isopropoxy-imidazo[1,2-a]pyridin-6-yl]-3-(trifluoromethyl)benzamide], 100 to 500 nM.

`CC(C)Oc1cc2nc([C@H]3CC[C@H](CN4CCC(c5cccc(NC6CCC(=O)NC6=O)c5)CC4)CC3)cn2cc1NC(=O)c1cccc(C(F)(F)F)n1` (stereo partly shown) [Example 39, N-[2-[4-[[4-[3-[(2,6-dioxo-3-piperidyl)amino]phenyl]-1-piperidyl]methyl]cyclohexyl]-7-isopropoxy-imidazo[1,2-a]pyridin-6-yl]-6-(trifluoromethyl)pyridine-2-carboxamide]: the DC50 lay within 100 to 500 nM.

On to `CC(C)Oc1cc2nc(C3CCN(CC(=O)N4CCC(c5cccc(NC6CCC(=O)NC6=O)c5)CC4)CC3)cn2cc1NC(=O)c1cccc(C(F)(F)F)n1` (stereo not shown) [Example 17, N-[2-[1-[2-[4-[3-[(2,6-dioxo-3-piperidyl)amino]phenyl]-1-piperidyl]-2-oxo-ethyl]-4-piperidyl]-7-isopropoxy-imidazo[1,2-a]pyridin-6-yl]-6-(trifluoromethyl)pyridine-2-carboxamide], for which the DC50 was 10 to 100 nM. For `CC(C)Oc1cc2nc(C3CCN(CC(=O)N4CCC(c5cccc(NC6CCC(=O)NC6=O)c5F)CC4)CC3)cn2cc1NC(=O)c1cccc(C(F)(F)F)n1` (stereo not shown) [Example 13, N-[2-[1-[2-[4-[3-[(2,6-dioxo-3-piperidyl)amino]-2-fluoro-phenyl]-1-piperidyl]-2-oxo-ethyl]-4-piperidyl]-7-isopropoxy-imidazo[1,2-a]pyridin-6-yl]-6-(trifluoromethyl)pyridine-2-carboxamide] the value was 100 to 500 nM; for `CC(C)Oc1cn2cc(C3CCN(CC(=O)N4CCC(c5ccc(NC6CCC(=O)NC6=O)cc5)CC4)CC3)nc2cc1NC(=O)c1cccc(C(F)(F)F)n1` (single isomer, unassigned) [Example 15, N-[2-[1-[2-[4-[4-[[2,6-dioxo-3-piperidyl]amino]phenyl]-1-piperidyl]-2-oxo-ethyl]-4-piperidyl]-6-isopropoxy-imidazo[1,2-a]pyridin-7-yl]-6-(trifluoromethyl)pyridine-2-carboxamide], 10 to 100 nM; for `CC(C)Oc1cc2nc(C3CCN(CC(=O)N4CCN(c5ccc(C6CCC(=O)NC6=O)cc5)CC4)CC3)cn2cc1NC(=O)c1cccc(C(F)(F)F)n1` (stereo not shown) [Example 22, N-[2-[1-[2-[4-[4-(2,6-dioxo-3-piperidyl)phenyl]piperazin-1-yl]-2-oxo-ethyl]-4-piperidyl]-7-isopropoxy-imidazo[1,2-a]pyridin-6-yl]-6-(trifluoromethyl)pyridine-2-carboxamide], 10 to 100 nM. `CC(C)Oc1cc2nc(C3CCN(CCC(=O)N4CCC(c5ccc(C6CCC(=O)NC6=O)cc5)CC4)CC3)cn2cc1NC(=O)c1cccc(C(F)(F)F)n1` (stereo not shown) [Example 32, N-[2-[1-[3-[4-[4-(2,6-dioxo-3-piperidyl)phenyl]-1-piperidyl]-3-oxo-propyl]-4-piperidyl]-7-isopropoxy-imidazo[1,2-a]pyridin-6-yl]-6-(trifluoromethyl)pyridine-2-carboxamide] gave a half-maximal degradation concentration (DC50) of 100 to 500 nM.

Turning to `CC(C)Oc1cc2nc(C3CCN(CC(=O)N4CCC(c5ccc(NC6CCC(=O)NC6=O)cc5)CC4)CC3)cn2cc1NC(=O)c1cccc(C(F)(F)F)n1` (stereo not shown) [Example 23, N-[2-[1-[2-[4-[4-[(2,6-dioxo-3-piperidyl)amino]phenyl]-1-piperidyl]-2-oxo-ethyl]-4-piperidyl]-7-isopropoxy-imidazo[1,2-a]pyridin-6-yl]-6-(trifluoromethyl)pyridine-2-carboxamide], the half-maximal degradation concentration (DC50) lay in the range of 10 to 100 nM. Consider `CC(C)Oc1cc2nc(C3CCN(CC(=O)N4CCC(c5ccc(C6CCC(=O)NC6=O)cc5)CC4)CC3)cn2cc1NC(=O)c1cccc(C(F)(F)F)n1` (stereo not shown) [Example 29, N-[2-[1-[2-[4-[4-(2,6-dioxo-3-piperidyl)phenyl]-1-piperidyl]-2-oxo-ethyl]-4-piperidyl]-7-isopropoxy-imidazo[1,2-a]pyridin-6-yl]-6-(trifluoromethyl)pyridine-2-carboxamide], for which the half-maximal degradation concentration (DC50) is 10 to 100 nM. For `CC(C)Oc1cc2nc(C3CCN(CC(=O)N4CCC(c5ccc(C6(F)CCC(=O)NC6=O)cc5)CC4)CC3)cn2cc1NC(=O)c1cccc(C(F)(F)F)n1` (stereo not shown) [Example 12, N-[2-[1-[2-[4-[4-(3-fluoro-2,6-dioxo-3-piperidyl)phenyl]-1-piperidyl]-2-oxo-ethyl]-4-piperidyl]-7-isopropoxy-imidazo[1,2-a]pyridin-6-yl]-6-(trifluoromethyl)pyridine-2-carboxamide] the value was 100 to 500 nM. For `CC(C)Oc1cc2nc(C3CCN(CC(=O)N4CCC(c5ccc(CN6CCC(=O)NC6=O)cc5)CC4)CC3)cn2cc1NC(=O)c1cccc(C(F)(F)F)n1` [Example 25, N-[2-[1-[2-[4-[4-[(2,4-dioxohexahydropyrimidin-1-yl)methyl]phenyl]-1-piperidyl]-2-oxo-ethyl]-4-piperidyl]-7-isopropoxy-imidazo[1,2-a]pyridin-6-yl]-6-(trifluoromethyl) pyridine-2-carboxamide] the value was 100 to 500 nM; for `CC(C)Oc1cc2nc(C3CCN(C(=O)CN4CCC(c5cccc(NC6CCC(=O)NC6=O)c5F)CC4)CC3)cn2cc1NC(=O)c1cccc(C(F)(F)F)n1` (stereo not shown) [Example 2, N-[2-[1-[2-[4-[3-[(2,6-dioxo-3-piperidyl)amino]-2-fluoro-phenyl]-1-piperidyl]acetyl]-4-piperidyl]-7-isopropoxy-imidazo[1,2-a]pyridin-6-yl]-6-(trifluoromethyl)pyridine-2-carboxamide], 10 to 100 nM; for `CC(C)Oc1cc2nc(C3CCN(C(=O)CN4CCC(c5ccc(OC6CCC(=O)NC6=O)cc5)CC4)CC3)cn2cc1NC(=O)c1cccc(C(F)(F)F)n1` (stereo not shown) [Example 1, N-[2-[1-[2-[4-[4-[(2,6-dioxo-3-piperidyl)oxy]phenyl]-1-piperidyl]acetyl]-4-piperidyl]-7-isopropoxy-imidazo[1,2-a]pyridin-6-yl]-6-(trifluoromethyl) pyridine-2-carboxamide], 100 to 500 nM.

The record behind these values is patent US20250018046A1, “COMPOUNDS FOR TARGETING DEGRADATION OF IRAK4 PROTEINS” (BIOGEN MA INC, priority 2021, published 2025).
